# According to patent US20050169948A1, “Method and compositions for treatment of acne vulgaris and acne rosacea” (priority 2004, published 2005):
# Key:
# skin = conditions: concentrations 1.0% to 10%
# [1] = tested on: acne vulgaris or acne rosacea; assay: Clinical studies of topical formulations in acne patients, compared to placebo or to nicotinamide alone; type: in vivo, human; conditions: over one thousand acne patients
structure (smiles),measurement,setting,value
O=C(O)c1cccnc1 [nicotinic acid],irritation on continuous or regular topical application,skin,too irritating
NC(=O)c1cccnc1 [nicotinamide],efficacy in treating acne vulgaris or acne rosacea compared to placebo,[1],modestly effective
